Experimental data reported in ChEMBL document CHEMBL2073763, “Functional involvement of rat organic anion transporter 3 (rOat3; Slc22a8) in the renal uptake of organic anions” (J Pharmacol Exp Ther, 2002).
Blank lines part the entries; values can stand above or below the molecule they belong to.

Assays:
Type in all cases: functional, cell-based
[1] = target: T1, Organic anion transporter 3 (Rattus norvegicus, UniProt Q9R1U7); assay: TP_TRANSPORTER: inhibition of Pravastatin uptake in Oat3-expressing LLC-PK1 cells
T1 sequence (Q9R1U7 whole entry): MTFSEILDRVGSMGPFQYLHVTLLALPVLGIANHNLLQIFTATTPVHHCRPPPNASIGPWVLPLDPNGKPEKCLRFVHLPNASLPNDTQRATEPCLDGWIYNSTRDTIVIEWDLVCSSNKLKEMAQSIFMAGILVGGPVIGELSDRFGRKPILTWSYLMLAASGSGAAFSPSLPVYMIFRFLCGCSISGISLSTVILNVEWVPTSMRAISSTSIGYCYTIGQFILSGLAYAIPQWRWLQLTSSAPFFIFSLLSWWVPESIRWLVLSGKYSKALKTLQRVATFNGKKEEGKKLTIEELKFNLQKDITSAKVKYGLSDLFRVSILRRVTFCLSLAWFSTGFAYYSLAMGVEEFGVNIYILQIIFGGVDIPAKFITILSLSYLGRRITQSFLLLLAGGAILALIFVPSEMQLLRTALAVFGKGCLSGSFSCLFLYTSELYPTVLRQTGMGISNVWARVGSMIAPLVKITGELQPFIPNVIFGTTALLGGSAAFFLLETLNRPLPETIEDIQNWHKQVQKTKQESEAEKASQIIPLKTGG

[2] = target: T2, Solute carrier family 22 member 6 (Rattus norvegicus, UniProt O35956); assay: TP_TRANSPORTER: inhibition of PAH uptake in Oat1-expressing LLC-PK1 cells
T2 sequence (O35956 whole entry): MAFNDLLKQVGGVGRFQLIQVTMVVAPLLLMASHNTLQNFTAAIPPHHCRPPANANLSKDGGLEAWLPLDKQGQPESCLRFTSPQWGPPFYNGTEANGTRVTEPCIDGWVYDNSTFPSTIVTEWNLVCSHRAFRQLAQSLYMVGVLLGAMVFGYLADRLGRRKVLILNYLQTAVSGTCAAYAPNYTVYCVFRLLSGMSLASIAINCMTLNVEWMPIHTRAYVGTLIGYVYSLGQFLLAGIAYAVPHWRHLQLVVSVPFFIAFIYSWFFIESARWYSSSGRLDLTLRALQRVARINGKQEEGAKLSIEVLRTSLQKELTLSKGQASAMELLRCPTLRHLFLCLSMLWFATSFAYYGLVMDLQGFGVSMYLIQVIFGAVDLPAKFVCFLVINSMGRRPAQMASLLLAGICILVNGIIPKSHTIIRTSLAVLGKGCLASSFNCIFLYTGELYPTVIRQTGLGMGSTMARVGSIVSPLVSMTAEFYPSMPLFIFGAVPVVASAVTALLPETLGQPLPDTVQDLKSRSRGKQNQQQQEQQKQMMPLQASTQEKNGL

[3] = substrate: CC[C@H](C)C(=O)O[C@H]1C[C@H](O)C=C2C=C[C@H](C)[C@H](CC[C@@H](O)C[C@@H](O)CC(=O)O)[C@H]21; assay: TP_TRANSPORTER: uptake in Oat3-expressing LLC-PK1 cells

Molecule: Nc1ccc(C(=O)NCC(=O)O)cc1 [AMINOHIPPURIC ACID]
Ki [1]: 1350 µM

Molecule: CC[C@H](C)C(=O)O[C@H]1C[C@H](O)C=C2C=C[C@H](C)[C@H](CC[C@@H](O)C[C@@H](O)CC(=O)O)[C@H]21 [PRAVASTATIN]
Ki [2]: 1150 µM

B1: Organic anion transporter 3 (Rattus norvegicus) (protein)
chain: T1 sequence (Q9R1U7 whole entry)
Km [3]: 13.4 µM

The next lines start with the values.

Ki [2]: 2.74 µM
Ki [1]: 3.09 µM
Molecule: O=C1OC(c2ccc(OS(=O)(=O)O)cc2)(c2ccc(OS(=O)(=O)O)cc2)c2c(Br)ccc(Br)c21 [DIBROMOSULFOPHTHALEIN]

Ki [1]: 52.8 µM
Molecule: CC1(C)S[C@@H]2[C@H](NC(=O)Cc3ccccc3)C(=O)N2[C@H]1C(=O)O [PENICILLIN G]
